According to paper PMC9465710, “Identification of a BAZ2A-Bromodomain Hit Compound by Fragment Growing” (ACS Medicinal Chemistry Letters, 2022):

Test system: BAZ2A
Experiment: not given
Design: method as in PMID 25799074, PMID 25719566
Conditions: cited from earlier work

SMILES | affinity for BAZ2A (in words)
Cn1cc(CCn2cnc(-c3cnn(C)c3)c2-c2ccc(C#N)cc2)cn1 [BAZ2-ICR] | very high nanomolar range
CCCOc1ccn2c(C(C)=O)cc(-c3ccccc3S(C)(=O)=O)c2c1 [GSK2801] | very high nanomolar range

Target: T1, BAZ2A bromodomain (Homo sapiens, UniProt Q9UIF9)
T1 construct: made in house
T1 sequence (Q9UIF9 1793-1897 limits assumed): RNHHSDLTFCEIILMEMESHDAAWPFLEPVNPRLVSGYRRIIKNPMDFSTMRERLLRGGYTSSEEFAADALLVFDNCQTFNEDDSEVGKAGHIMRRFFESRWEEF
Experiment: AlphaScreen competition binding assay (BAZ2A bromodomain binding to acetylated peptide)
Conditions: single dose 100 μM; IC50 not determined; read-out: Residual activity when tested in single dose

SMILES | remaining binding at 100 µM [%]
CCCNC(=O)c1c(C)[nH]c(-c2csc(N3CCNCC3)n2)c1CC [Compound 75] | > 50
CC(=O)c1c(C)[nH]c(-c2csc(N3CCNCC3)n2)c1-c1ccnn1C [Compound 76] | > 50
CCc1c(-c2csc(N3CCN(Cc4cnn5c4OCCC5)CC3)n2)[nH]c(C)c1C(C)=O [Compound 89] | > 50
CCc1c(-c2csc(N3CCN(Cc4ccsc4S(N)(=O)=O)CC3)n2)[nH]c(C)c1C(C)=O [Compound 90] | > 50
CCc1c(-c2csc(N3CCN(Cc4cc(S(N)(=O)=O)co4)CC3)n2)[nH]c(C)c1C(C)=O [Compound 91] | > 50
CCc1c(-c2csc(N3CCN(Cc4c[nH]c(=O)[nH]c4=O)CC3)n2)[nH]c(C)c1C(C)=O [Compound 93] | > 50
CCc1c(-c2csc(N3CCN(Cc4cnc(N)nc4)CC3)n2)[nH]c(C)c1C(C)=O [Compound 94] | > 50
CCc1c(-c2csc(N3CCNCC3C(=O)NCc3ncoc3C(C)C)n2)[nH]c(C)c1C(C)=O (centres unmarked) [Compound 101] | > 50
CCc1c(-c2csc(N3CCNCC3C(=O)NC3CCC(C(N)=O)CC3)n2)[nH]c(C)c1C(C)=O (centres unmarked) [Compound 103] | > 50
CCc1c(-c2csc(N3CCNCC3C(=O)NCC3CC4(CCC4)C3)n2)[nH]c(C)c1C(C)=O (centres unmarked) [Compound 106] | > 50
CCc1c(-c2csc(N3CCNCC3C(=O)NCC3CC(C)C3)n2)[nH]c(C)c1C(C)=O (centres unmarked) [Compound 114] | > 50

Target: T1, BAZ2A bromodomain
Experiment: as above
Conditions: not given
Description: The 36 selected molecules were tested by AlphaScreen at single doses in duplicate. Six molecules (compounds 8, 9, 11, 14, 18, and 25) decreased binding of BAZ2A bromodomain to the acetylated peptide by at least 50% when tested at 500 μM. […]
AlphaScreen assay was conducted as detailed in [11]. […]

SMILES | ligand efficiency (LE) [kcal/mol per heavy atom] | lipophilic ligand efficiency (LLE)
CCc1c(-c2csc(N=C(N)N)n2)[nH]c(C)c1C(C)=O [Compound 25] | 0.31 | 2.4
CCc1c(-c2csc(N3CCNCC3)n2)[nH]c(C)c1C(C)=O [Compound 47] | 0.29 | 1.9

Same assay, conditions: AlphaScreen dose-response

SMILES | IC50 [µM]
NC1CCCN(S(=O)(=O)c2cccc3cnccc23)C1 (centres unmarked) [Compound 8] | > 200
O=S(=O)(NC1CCNC1)c1cccc2cnccc12 (centres unmarked) [Compound 9] | > 200
C/N=C(/NC)NC1CCN(c2cc(OC)cc(OC)c2)CC1 [Compound 11] | > 200
NCc1ccc(N2CCNC(=O)C2)cc1 [Compound 14] | > 200
CC(=O)N1CCN(c2ccc(NC(=N)N)cc2)CC1 [Compound 18] | > 200
CCc1c(-c2csc(N=C(N)N)n2)[nH]c(C)c1C(C)=O [Compound 25] | 33.2 ± 0.3
CCc1c(-c2csc(N)n2)[nH]c(C)c1C(C)=O [Compound 43] | 76.2 ± 8.6
CCc1c(-c2csc(CCCN)n2)[nH]c(C)c1C(C)=O [Compound 44] | 57.9 ± 6
CCc1c(-c2csc(CCNC)n2)[nH]c(C)c1C(C)=O [Compound 45] | 109 ± 12.3
CCc1c(-c2csc(N3CCNCC3)n2)[nH]c(C)c1C(C)=O [Compound 47] | 33.3 ± 0.4
CCc1c(-c2csc(C3CCNCC3)n2)[nH]c(C)c1C(C)=O [Compound 48] | 94.6 ± 11.7
CCc1c(-c2csc(C3CCCNC3)n2)[nH]c(C)c1C(C)=O (centres unmarked) [Compound 49] | 47 ± 5
CCc1c(-c2csc(C3CCCCN3)n2)[nH]c(C)c1C(C)=O (centres unmarked) [Compound 50] | 76.8 ± 6.4
CCc1c(-c2csc(C3COCCN3)n2)[nH]c(C)c1C(C)=O (centres unmarked) [Compound 52] | 93.5 ± 9.7
CCc1c(-c2csc(C3CCNC3)n2)[nH]c(C)c1C(C)=O (centres unmarked) [Compound 53] | 54 ± 0.2
CCc1c(-c2csc(C3(NC(C)=O)CCNC3)n2)[nH]c(C)c1C(C)=O (centres unmarked) [Compound 54] | 61.3 ± 10.6
CCc1c(-c2csc(C3CCN(C(C)=O)C3)n2)[nH]c(C)c1C(C)=O (centres unmarked) [Compound 55] | 114 ± 22.1
CCc1c(-c2csc(C3CCN(C(N)=O)C3)n2)[nH]c(C)c1C(C)=O (centres unmarked) [Compound 56] | > 100
CCc1c(-c2csc(C3CCCN3C(C)=O)n2)[nH]c(C)c1C(C)=O (centres unmarked) [Compound 57] | 93.2 ± 10.1
CCc1c(-c2csc(C3CCCN3C(N)=O)n2)[nH]c(C)c1C(C)=O (centres unmarked) [Compound 58] | > 100

SMILES | IC50 [µM]
CCc1c(-c2csc(CN3CCOCC3)n2)[nH]c(C)c1C(C)=O [Compound 59] | 74.2 ± 9.1
CCc1c(-c2csc(Cc3ccc(N)cc3)n2)[nH]c(C)c1C(C)=O [Compound 60] | > 100
CCc1c(-c2csc(CN3CCNCC3)n2)[nH]c(C)c1C(C)=O [Compound 61] | 54 ± 0.2
CCc1c(-c2csc(NC3CCNCC3)n2)[nH]c(C)c1C(C)=O [Compound 62] | 53.9 ± 0.2
CCc1c(-c2csc(CN3CCC(N)CC3)n2)[nH]c(C)c1C(C)=O [Compound 63] | 60.5 ± 9.4
CCc1c(-c2csc(CN3CCN(C(C)=O)CC3)n2)[nH]c(C)c1C(C)=O [Compound 64] | 75.7 ± 9.2
CC(=O)c1c(C)[nH]c(-c2csc(CN3C(=O)CNC3=O)n2)c1C [Compound 65] | 54 ± 0.3
CCc1c(-c2csc(C3(N)CCCC3)n2)[nH]c(C)c1C(C)=O [Compound 66] | 99.7 ± 10.9
Cc1[nH]c(-c2csc(-c3cc[nH]n3)n2)c2c1C(=O)CCC2 [Compound 69] | 74.3 ± 4.7
CCc1c(-c2csc(-c3cnc[nH]3)n2)[nH]c(C)c1C(C)=O [Compound 72] | 54.6 ± 7.1
CCc1c(-c2csc(N3CCNCC3)n2)[nH]c(C)c1C(N)=O [Compound 74] | > 100
CC(=O)c1c(C)[nH]c(-c2csc(N3CCNCC3)n2)c1CCC(F)(F)F [Compound 77] | 38.9 ± 2
CC(=O)c1c(C)[nH]c(-c2csc(N3CCNCC3)n2)c1C1CCCC1 [Compound 78] | 40.1 ± 3.4
CC(=O)c1c(C)[nH]c(-c2csc(N3CCNCC3)n2)c1CCC(C)C [Compound 79] | 12.5 ± 0.4
Cc1[nH]c(-c2csc(N3CCNCC3)n2)c2c1C(=O)CCC2 [Compound 80] | 11.4 ± 0.3
Cc1[nH]c(-c2csc(N3CCNCC3)n2)c2c1C(=O)CC(C)(C)C2 [Compound 81] | 11.8 ± 0.3
Cc1[nH]c(-c2csc(N3CCNCC3)n2)c2c1C(=O)CCC2(C)C [Compound 82] | 44.6 ± 5.6
Cc1[nH]c(-c2csc(NC(=N)N)n2)c2c1C(=O)CCC2 [Compound 83] | 11 ± 0.2
Cc1[nH]c(-c2csc(NC(=N)N)n2)c2c1C(=O)CC(C)(C)C2 [Compound 84] | 29.2 ± 0.3
CCc1c(-c2csc(N3CCN(Cc4cc5n(n4)CCC5)CC3)n2)[nH]c(C)c1C(C)=O [Compound 86] | > 100

SMILES | IC50 [µM]
CCc1c(-c2csc(N3CCN(CC4CCN(CC)CC4)CC3)n2)[nH]c(C)c1C(C)=O [Compound 87] | 46.6 ± 2.5
CCc1c(-c2csc(N3CCN(Cc4cn(CC(N)=O)nn4)CC3)n2)[nH]c(C)c1C(C)=O [Compound 88] | 42.9 ± 4.6
CCc1c(-c2csc(N3CCN(Cc4n[nH]cc4C)CC3)n2)[nH]c(C)c1C(C)=O [Compound 92] | 13.1 ± 0.9
CCc1c(-c2csc(N3CCN(Cc4c[nH]c5ncncc45)CC3)n2)[nH]c(C)c1C(C)=O [Compound 95] | 12.9 ± 2
CCc1c(-c2csc(N3CCN(Cc4conc4COC)CC3)n2)[nH]c(C)c1C(C)=O [Compound 96] | 85.1 ± 6.8
CCc1c(-c2csc(N3CCN(Cc4ccnn4CC(C)C)CC3)n2)[nH]c(C)c1C(C)=O [Compound 97] | 49.3 ± 5.7
Cc1c[nH]nc1CN1CCN(c2nc(-c3[nH]c(C)c4c3CCCC4=O)cs2)CC1 [Compound 98] | 12.6 ± 1.4
Cc1[nH]c(-c2csc(N3CCN(Cc4c[nH]c5ncncc45)CC3)n2)c2c1C(=O)CCC2 [Compound 99] | 10.9 ± 0.2
CCc1c(-c2csc(N3CCNCC3C(=O)NC3(c4ncccc4F)CC3)n2)[nH]c(C)c1C(C)=O (centres unmarked) [Compound 100] | 36.5 ± 4.1
CCc1c(-c2csc(N3CCNCC3C(=O)NC3(Cc4ccccc4Br)CC3)n2)[nH]c(C)c1C(C)=O (centres unmarked) [Compound 102] | 10.6 ± 0.2
CCc1c(-c2csc(N3CCNCC3C(=O)NCCc3cc4ccccc4[nH]3)n2)[nH]c(C)c1C(C)=O (centres unmarked) [Compound 105] | 33.2 ± 0.3
CCc1c(-c2csc(N3CCNCC3C(=O)NCC(F)(F)F)n2)[nH]c(C)c1C(C)=O (centres unmarked) [Compound 107] | 14.1 ± 0.2
CCc1c(-c2csc(N3CCNCC3C(=O)NCC(C)(C)CC)n2)[nH]c(C)c1C(C)=O (centres unmarked) [Compound 108] | 35.1 ± 0.2
CCc1c(-c2csc(N3CCNCC3C(=O)NCCCCO)n2)[nH]c(C)c1C(C)=O (centres unmarked) [Compound 109] | 31.3 ± 0.7
CCc1c(-c2csc(N3CCNCC3C(=O)NCC(N)=O)n2)[nH]c(C)c1C(C)=O (centres unmarked) [Compound 110] | 22 ± 2.3
CCc1c(-c2csc(N3CCNCC3C(=O)NCCC(F)(F)F)n2)[nH]c(C)c1C(C)=O (centres unmarked) [Compound 111] | 11 ± 0.2
CCc1c(-c2csc(N3CCNCC3C(=O)NC(CO)CO)n2)[nH]c(C)c1C(C)=O (centres unmarked) [Compound 112] | 42 ± 5.2
CCc1c(-c2csc(N3CCNCC3C(=O)NCC(C)(C)C)n2)[nH]c(C)c1C(C)=O (centres unmarked) [Compound 113] | 14 ± 0.3

Same assay, conditions: single dose, compound concentration 500 μM; read-out: % residual BAZ2A activity

SMILES | remaining binding at 500 µM [%]
NC1CCCN(S(=O)(=O)c2cccc3cnccc23)C1 (centres unmarked) [Compound 8] | 49 ± 7
O=S(=O)(NC1CCNC1)c1cccc2cnccc12 (centres unmarked) [Compound 9] | 44 ± 3
C/N=C(/NC)NC1CCN(c2cc(OC)cc(OC)c2)CC1 [Compound 11] | 48 ± 5
NC(=O)c1cc(OC2CCNCC2)ccn1 [Compound 13] | 75 ± 2
NCc1ccc(N2CCNC(=O)C2)cc1 [Compound 14] | 32 ± 4
CC(=O)N1CCN(c2ccc(NC(=N)N)cc2)CC1 [Compound 18] | 37 ± 4
CCc1c(-c2csc(N=C(N)N)n2)[nH]c(C)c1C(C)=O [Compound 25] | 5 ± 0.6
NC1CCN(C(=O)c2ccc(=O)[nH]c2)CC1 [Compound 36] | 71 ± 3

Same assay, conditions: tested at 500 μM, single dose in duplicate

SMILES | decrease of binding of BAZ2A bromodomain to the acetylated peptide
NC1CCCN(S(=O)(=O)c2cccc3cnccc23)C1 (centres unmarked) [Compound 8] | at least 50%
O=S(=O)(NC1CCNC1)c1cccc2cnccc12 (centres unmarked) [Compound 9] | at least 50%
C/N=C(/NC)NC1CCN(c2cc(OC)cc(OC)c2)CC1 [Compound 11] | at least 50%
NCc1ccc(N2CCNC(=O)C2)cc1 [Compound 14] | at least 50%
CC(=O)N1CCN(c2ccc(NC(=N)N)cc2)CC1 [Compound 18] | at least 50%
CCc1c(-c2csc(N=C(N)N)n2)[nH]c(C)c1C(C)=O [Compound 25] | at least 50%
